Where a SMILES comes first, the peptide text is derived from it. Bridges are numbered along the chain shown (N, C = ends).
Molecular target: chymotrypsin (Bos taurus, UniProt P00766)
Experiment: Determination of enzyme inhibitory activity against chymotrypsin (substrate AAPFpNA, OD 405 nm)
Type: biochemical
Conditions: for IC50: chymotrypsin 30 nM, AAPFpNA 0.5 mM, pH 7.8, 37° C.; for remaining activity at 0.0001 µM: peptide 0.0001 μM; for remaining activity at 0.01 µM: peptide 0.01 μM; for remaining activity at 0.1 µM: peptide 0.1 μM; for remaining activity at 0.2 µM: peptide 0.2 μM; for remaining activity at 0.4 µM: peptide 0.4 μM; for remaining activity at 1 µM: peptide 1 μM; for remaining activity at 10 µM: peptide 10 μM; for remaining activity at 100 µM: peptide 100 μM; for remaining activity at 0.001 µM: peptide 0.001 μM
Experimental: The substrates N-succinyl-Ala-Ala-Pro-Phe-p-nitroaniline (AAPFpNA) is used in competitive binding reaction to determine the inhibitory activities against α -chymotrypsin. Experiments for a-chymotrypsin was measured in 20 mM CaCl2, 50 mM Tris-HCl buffer (pH 7.8). The concentration of the peptide was measured using optical density (OD) at 280 nm. The Michaelis constant (Km) of the enzyme hydrolysis substrate is calculated from the initial rate of substrate hydrolysis at 405 nm. The absorbance value of the substrate was measured at 405 nm after complete hydrolysis. All data were processed using nonlinear regression.
(1) Added a total 190 μL of reaction buffer (20 mM CaCl2, 50 mM Tris-HCl (pH 7.8)), different concentrations of anti-chymorypsin peptides (CHs) into the pre-cold 96 well plate, followed by preheating at 37° C. for 5 min and centrifugated at 500 rpm for 1 min and allowed to stand for 4 minutes. Then added 8 μL of 750 nM chymotrypsin and incubated at 37° C. for 10 min, and centrifugated at 500 rpm for 1 min and allowed to stand for 9 minutes. Finally, added 2 μL of 50 mM AAPFpNA, and mixed by centrifugation at 500 rpm for 1 min. The plate was incubated at 37° C. for 90 min, and the absorbance value at 405 nm was measured. Three repetitions were made, and only reaction buffer and substrate were added in the blank control as the minimum absorption value (Min OD 405 nm); Only reaction buffer, enzyme and substrate were added in the negative control as the maximum absorption value (Max OD 405 nm).
(2) In the 200 μL of reaction system, the final concentrations of chymotrypsin and AAPFpNA were 30 nM and 0.5 mM, respectively.
Plotted the residual activity of enzyme with […] to obtain the half inhibitory concentration (IC50) of anti-chymorypsin peptides (CHs). Then, substituted it into the formula […]/(1+S/Km) (S, IC50, and Km were substrate concentration, half inhibitory concentration, and Michaelis constant, respectively) to obtain the inhibition constant Ki of anti-chymorypsin peptides (CHs).

[1] = read-out: Residual activity of chymotrypsin

Work on `CC[C@H](C)[C@@H]1NC(=O)[C@H](CO)NC(=O)[C@H](Cc2ccc(O)cc2)NC(=O)[C@H]([C@@H](C)O)NC(=O)[C@@H](NC(=O)[C@@H](N)Cc2ccccc2)CSSC[C@@H](C(=O)N[C@@H](Cc2ccc(O)cc2)C(=O)NCC(=O)O)NC(=O)[C@H](CCC(N)=O)NC(=O)[C@@H]2CCCN2C(=O)[C@@H]2CCCN2C1=O` [CH10] (H-FCTYSIPPQCYG-OH; disulfide 2-10; C-terminus assumed) yielded a Ki of 30 nM, an IC50 of 60 nM and a remaining activity at 0.0001 µM [1] of 101%. It also gave a remaining activity at 0.01 µM [1] of 95.1 ± 1.2%, a remaining activity at 0.1 µM [1] of 35.4 ± 7.2% and a remaining activity at 0.2 µM [1] of 24.9 ± 3.5%. It also gave a remaining activity at 0.4 µM [1] of 18 ± 4.9%, a remaining activity at 1 µM [1] of 3.8 ± 0.4% and a remaining activity at 10 µM [1] of 0.1 ± 0.1%. For the same compound, the remaining activity at 100 µM [1] was -0.1%.

Work on `CC[C@H](C)[C@@H]1NC(=O)[C@H](CO)NC(=O)[C@H](Cc2ccc(O)cc2)NC(=O)[C@H]([C@@H](C)O)NC(=O)[C@@H](NC(=O)[C@@H]2CCCN2)CSSC[C@@H](C(=O)N[C@@H](Cc2ccc(O)cc2)C(=O)O)NC(=O)[C@H](CCC(N)=O)NC(=O)[C@@H]2CCCN2C(=O)[C@@H]2CCCN2C1=O` [CH51] (H-PCTYSIPPQCY-OH; disulfide 2-10; C-terminus assumed) yielded a Ki of 200 nM, an IC50 of 460 nM and a remaining activity at 0.001 µM [1] of 100 ± 1.2%. The remaining activity at 0.01 µM [1] was 100 ± 0.2%, the remaining activity at 0.1 µM [1] was 95.4 ± 2.2% and the remaining activity at 0.2 µM [1] was 80.3 ± 3.9%. For the same compound, the remaining activity at 0.4 µM [1] was 54.2 ± 1.8%, the remaining activity at 0.8 µM (peptide 0.8 μM, read-out: Residual activity of chymotrypsin) was 31.2 ± 1.6% and the remaining activity at 1 µM [1] was 24.3 ± 2.4%. The remaining activity at 10 µM [1] was 3 ± 0.2%, the remaining activity at 100 µM [1] was 0.3% and the “inhibitory activity reduced (fold)” value (relative to CH10) was about 7 times.

Compound `CC[C@H](C)[C@@H]1NC(=O)[C@H](CO)NC(=O)[C@H](Cc2ccccc2)NC(=O)[C@H]([C@@H](C)O)NC(=O)[C@@H](NC(=O)[C@@H](N)Cc2ccccc2)CSSC[C@@H](C(=O)N[C@@H](Cc2ccc(O)cc2)C(=O)NCC(=O)O)NC(=O)[C@H](CCC(N)=O)NC(=O)[C@@H]2CCCN2C(=O)[C@@H]2CCCN2C1=O` [CH5] (H-FCTFSIPPQCYG-OH; disulfide 2-10; C-terminus assumed) has a Ki of 80 nM, an IC50 of 190 nM and a remaining activity at 0.0001 µM [1] of 96.7 ± 9.3%. The remaining activity at 0.001 µM [1] was 113 ± 2.4%, the remaining activity at 0.01 µM [1] was 102 ± 3.7% and the remaining activity at 0.15 µM (peptide 0.15 μM, read-out: Residual activity of chymotrypsin) was 58.3 ± 2.3%. It also gave a remaining activity at 0.3 µM (peptide 0.3 μM, read-out: Residual activity of chymotrypsin) of 41.9 ± 5.7%, a remaining activity at 0.6 µM (peptide 0.6 μM, read-out: Residual activity of chymotrypsin) of 19 ± 0.8% and a remaining activity at 1 µM [1] of 11.3 ± 1.5%. It also gave a remaining activity at 10 µM [1] of 0.3% and a remaining activity at 100 µM [1] of 0.3 ± 0.2%.

Compound `CC[C@H](C)[C@@H]1NC(=O)[C@@H]2CCCN2C(=O)[C@@H]2CCCN2C(=O)[C@H]([C@@H](C)CC)NC(=O)[C@H](CO)NC(=O)[C@H](Cc2ccc(O)cc2)NC(=O)[C@H]([C@@H](C)O)NC(=O)[C@@H](NC(=O)[C@H](CCCNC(=N)N)NC(=O)CN)CSSC[C@@H](C(=O)N[C@@H](Cc2ccccc2)C(=O)N2CCC[C@H]2C(=O)N[C@@H](CC(=O)O)C(=O)O)NC1=O` [CH55] (H-GRCTYSIPPICFPD-OH; disulfide 3-11; C-terminus assumed) has a Ki of 8.6 nM, an IC50 of 20 nM and a remaining activity at 0.0001 µM [1] of 102.1 ± 1%. It also gave a remaining activity at 0.001 µM [1] of 101.6 ± 0.9%, a remaining activity at 0.015 µM (peptide 0.015 μM, read-out: Residual activity of chymotrypsin) of 68.1 ± 3.7% and a remaining activity at 0.02 µM (peptide 0.02 μM, read-out: Residual activity of chymotrypsin) of 45.8 ± 10%. It also gave a remaining activity at 0.04 µM (peptide 0.04 μM, read-out: Residual activity of chymotrypsin) of 21.8 ± 4.2%, a remaining activity at 0.08 µM (peptide 0.08 μM, read-out: Residual activity of chymotrypsin) of 11.6 ± 1.2% and a remaining activity at 0.1 µM [1] of 8 ± 2.4%. The remaining activity at 1 µM [1] was 0.9 ± 0.1% and the remaining activity at 10 µM [1] was 0.1%.

`CC[C@H](C)[C@@H]1NC(=O)[C@@H]2CCCN2C(=O)[C@@H]2CCCN2C(=O)[C@H]([C@@H](C)CC)NC(=O)[C@H](CO)NC(=O)[C@H](Cc2ccc(O)cc2)NC(=O)[C@H]([C@@H](C)O)NC(=O)[C@@H](NC(=O)[C@@H](N)CCCCN)CSSC[C@@H](C(=O)N[C@@H](Cc2ccccc2)C(=O)O)NC1=O` [CH64] (H-KCTYSIPPICF-OH; disulfide 2-10; C-terminus assumed) gave a Ki of 400 nM and an IC50 of 930 nM.

— patent publication US20260242438A1 (INSTITUTE OF MATERIA MEDICA, CHINESE ACADEMY OF MEDICAL …, priority 2022, published 2026)
